Measured values as given in ChEMBL document CHEMBL1133581, “Synthesis and in vitro and in vivo functional studies of ortho-substituted phenylpiperazine and N-substituted 4-N-(o-methoxyphenyl)aminopiperidine analogues of WAY100635” (J Med Chem, 2000).

Key:
[1] = target: T1, 5-hydroxytryptamine receptor 1A (Rattus norvegicus, UniProt P19327); experiment: biochemical
T1 sequence (P19327 whole entry): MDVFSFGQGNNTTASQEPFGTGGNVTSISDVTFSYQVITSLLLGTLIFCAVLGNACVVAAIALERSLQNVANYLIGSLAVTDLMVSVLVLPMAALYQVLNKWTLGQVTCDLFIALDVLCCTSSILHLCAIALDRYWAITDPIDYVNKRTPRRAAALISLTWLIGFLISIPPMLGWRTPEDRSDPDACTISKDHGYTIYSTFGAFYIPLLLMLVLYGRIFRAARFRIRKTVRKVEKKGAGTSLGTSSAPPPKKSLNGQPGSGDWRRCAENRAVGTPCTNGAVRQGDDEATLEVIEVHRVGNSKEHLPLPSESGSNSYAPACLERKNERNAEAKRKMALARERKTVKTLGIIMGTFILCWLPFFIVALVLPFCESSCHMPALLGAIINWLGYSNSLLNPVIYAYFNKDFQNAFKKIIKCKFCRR
Description: In vitro affinity against 5-hydroxytryptamine 1A receptor using [3H]-8-OH-DPAT in rat hippocampus

[2] = species on record: Rattus norvegicus
Description: Ability to counteract the 8-OH-DPAT (1 mg/kg sc)-induced Hypothermia in rats (n=4) and evaluated for the decrease in body temperature (degrees Celsius) at 0.1(micro mol/kg)

[3] = species on record: Rattus norvegicus; remark: listed apart in the source
[4] = species on record: Rattus norvegicus; remark: listed apart in the source
Description: Ability to counteract the 8-OH-DPAT (1 mg/kg sc)-induced Hypothermia in rats (n=4) and evaluated for the decrease in body temperature (degrees Celsius) at 1.0(micro mol/kg)

[5] = species on record: Cavia porcellus; experiment: tissue or blood; settings: Ileum, read-out: pA2 (converted)
Description: Ability to antagonize the 8-OH-DPAT-induced contractions of a strip of guinea pig ileum tissue

[6] = species on record: Rattus norvegicus; remark: listed apart in the source
Description: Ability to counteract the 8-OH-DPAT (1 mg/kg sc)-induced Hypothermia in rats (n=4) and evaluated for the decrease in body temperature (degrees Celsius) at 10(micro mol/kg)

SMILES | IC50 [1] [nM] | Decrease [2] [°C] | Vocalization time [3] [s] | Decrease [4] [°C] | Kb [5] [nM] | Decrease [6] [°C]
COc1ccccc1N(C)C1CCN(CCN(C(=O)C2CCCCC2)c2ccccn2)CC1 | 1290 | – | – | – | – | –
CCCN(CCC)C1CCc2cccc(O)c2C1 (stereo not drawn) [8-OH-DPAT] | – | 2 | 4.9 | – | – | –
O=C(C1CCCCC1)N(CCN1CCN(c2ccccc2O)CC1)c1ccccn1 | 2.1 | 0.6 | 166 | 0.2 | 10 | 0.3
O=C(C1CCCCC1)N(CCN1CCN(c2ccccc2OS(=O)(=O)C(F)(F)F)CC1)c1ccccn1 | 36 | 1.5 | 146 | 0 | 20 | 0.3
CS(=O)(=O)Oc1ccccc1N1CCN(CCN(C(=O)C2CCCCC2)c2ccccn2)CC1 | 7.25 | 1.1 | 167 | 0.5 | 2.51 | 0.4
O=C(C1CCCCC1)N(CCN1CCN(c2ccccc2OCCF)CC1)c1ccccn1 | 1.55 | 1.8 | 164 | 1.1 | 3.16 | 0.4
O=C(C1CCCCC1)N(CCN1CCN(c2ccccc2OCCCF)CC1)c1ccccn1 | 6.05 | 2.4 | 171 | 0.6 | 5.01 | 0.5
